Results taken from ChEMBL document CHEMBL3407453, “LEADOPT: an automatic tool for structure-based lead optimization, and its application in structural optimizations of VEGFR2 and SYK inhibitors” (Eur J Med Chem, 2015).
Activity calls are given as the source filed them. The calls are words filed in the database; no cut-off is given here.

Experiments:
[1] = target: T1, Vascular endothelial growth factor receptor 2 (Homo sapiens, UniProt P35968); experiment: Inhibition of VEGFR2 (unknown origin) by [33P]radiolabeled method
[2] = target: T2, Tyrosine-protein kinase SYK (Homo sapiens, UniProt P43405); experiment: Inhibition of SYK (unknown origin)
[3] = target: T1, Vascular endothelial growth factor receptor 2; details: HUVEC, at 0.01 to 10 µM
Description: Inhibition of VEGFR2 phosphorylation in VEGF-stimulated HUVEC cells at 0.01 to 10 uM after 2 hrs by Western blot analysis

HUVEC [4] = experiment: Antiangiogenic activity in HUVEC cells assessed as inhibition of cell migration at 5 uM after 18 hrs by wound healing assay; type: functional, cell-based; details: Homo sapiens
HUVEC [5] = experiment: Antiangiogenic activity in HUVEC cells assessed as inhibition of cell migration after 18 hrs by wound healing assay; type: functional, cell-based; details: Homo sapiens
[6] = target: T1, Vascular endothelial growth factor receptor 2; experiment: Inhibition of VEGFR2-mediated ERK1/2 phosphorylation in VEGF-stimulated HUVEC cells at 0.01 to 10 uM after 2 hrs by Western blot analysis; type: cell-based
Ramos = experiment: Cytotoxicity against human Ramos cells assessed as reduction in cell viability after 72 hrs by MTT assay; type: functional, cell-based
[7] = target: T2, Tyrosine-protein kinase SYK; experiment: Inhibition of SYK-mediated FLT3 phosphorylation in human MV4-11 cells at 0.01 to 1 uM after 6 hrs by Western blot analysis; type: cell-based
[8] = target: T2, Tyrosine-protein kinase SYK; experiment: Inhibition of SYK-mediated ERK1/2 phosphorylation in human MV4-11 cells at 0.01 to 1 uM after 6 hrs by Western blot analysis; type: cell-based
MV4-11 = experiment: Cytotoxicity against human MV4-11 cells assessed as reduction in cell viability after 72 hrs by MTT assay; type: functional, cell-based; details: MV4-11, 72 h

T1 sequence (P35968 whole entry): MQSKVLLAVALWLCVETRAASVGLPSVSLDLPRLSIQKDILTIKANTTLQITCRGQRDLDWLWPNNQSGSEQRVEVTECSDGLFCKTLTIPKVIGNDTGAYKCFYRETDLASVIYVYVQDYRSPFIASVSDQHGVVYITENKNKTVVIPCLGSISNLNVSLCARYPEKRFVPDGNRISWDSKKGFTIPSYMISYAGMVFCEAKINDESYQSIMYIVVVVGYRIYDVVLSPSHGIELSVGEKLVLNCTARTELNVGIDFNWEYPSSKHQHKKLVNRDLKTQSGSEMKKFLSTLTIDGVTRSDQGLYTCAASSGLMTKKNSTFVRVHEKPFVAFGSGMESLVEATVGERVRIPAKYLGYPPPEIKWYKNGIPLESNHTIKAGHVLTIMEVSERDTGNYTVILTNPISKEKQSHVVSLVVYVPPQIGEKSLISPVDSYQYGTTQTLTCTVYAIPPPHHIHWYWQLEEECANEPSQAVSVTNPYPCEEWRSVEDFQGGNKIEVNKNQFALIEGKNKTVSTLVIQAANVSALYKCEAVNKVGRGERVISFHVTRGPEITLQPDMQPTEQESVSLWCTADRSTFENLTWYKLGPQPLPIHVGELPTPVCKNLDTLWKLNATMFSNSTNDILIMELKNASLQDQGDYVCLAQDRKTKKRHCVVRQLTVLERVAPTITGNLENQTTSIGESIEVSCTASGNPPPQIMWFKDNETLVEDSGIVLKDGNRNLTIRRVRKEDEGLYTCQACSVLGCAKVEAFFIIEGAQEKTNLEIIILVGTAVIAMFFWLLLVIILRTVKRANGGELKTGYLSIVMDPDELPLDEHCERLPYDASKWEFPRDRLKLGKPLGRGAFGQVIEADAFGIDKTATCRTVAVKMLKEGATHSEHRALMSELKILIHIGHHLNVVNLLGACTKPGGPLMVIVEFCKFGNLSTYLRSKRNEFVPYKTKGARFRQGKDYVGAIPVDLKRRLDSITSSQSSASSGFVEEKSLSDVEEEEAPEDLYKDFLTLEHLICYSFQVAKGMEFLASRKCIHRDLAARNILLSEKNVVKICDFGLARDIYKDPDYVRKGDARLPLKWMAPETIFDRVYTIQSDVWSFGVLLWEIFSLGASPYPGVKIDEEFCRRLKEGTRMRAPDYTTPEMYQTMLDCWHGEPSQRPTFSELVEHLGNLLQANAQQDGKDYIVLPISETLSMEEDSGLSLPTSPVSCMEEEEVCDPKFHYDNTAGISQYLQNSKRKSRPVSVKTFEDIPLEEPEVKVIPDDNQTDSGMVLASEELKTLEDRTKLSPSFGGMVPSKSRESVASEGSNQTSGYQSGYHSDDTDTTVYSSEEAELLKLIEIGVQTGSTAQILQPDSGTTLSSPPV

SMILES | IC50 [1] [nM] | IC50 [2] [nM] | other results
O=C(Nc1ccc(Oc2ccnc3ccccc23)cc1)Nc1ccc(Cl)c(C(F)(F)F)c1 | 119 | – | –
CNC(=O)c1cc(Oc2ccc(NC(=O)Nc3cc(C(C)(C)C)on3)cc2)ccn1 | 17 | – | inhibition [3]: Active; inhibition (HUVEC [4]): Active; inhibition (HUVEC [5]): Dose-dependent effect; inhibition [6]: Active
CNC(=O)c1nccc(Oc2ccc(NC(=O)Nc3nc4ccccc4s3)cc2)n1 | 36 | – | –
Nc1nccc(Oc2ccc(NC(=O)Nc3ccc(Cl)c(C(F)(F)F)c3)cc2)n1 | 23 | – | –
CNC(=O)c1cc(Oc2ccc(NC(=O)Nc3ccc(Cl)c(C(F)(F)F)c3)cc2)ccn1 | – | – | inhibition (HUVEC [4]): Active
N#Cc1cc(Oc2ccc(NC(=O)Nc3ccc(Cl)c(C(F)(F)F)c3)cc2)ccn1 | 214 | – | –

Further lines, with some results ahead:

IC50 [1] [nM] | IC50 [2] [nM] | SMILES | other results
– | 2960 | COc1cc(Nc2ncc(F)c(Nc3ccc4nc(C)cc(N)c4c3)n2)cc(OC)c1OC | –
120 | – | Nc1nccc(Oc2ccc(NC(=O)Nc3nc4ccccc4s3)cc2)n1 | –
– | 326 | COc1cc(Nc2ncc(F)c(Nc3cc(Cl)ccc3C(N)=O)n2)cc(OC)c1OC | –
– | 13 | Cc1cc(N)c2cc(Nc3nc(Nc4ccc(N5CCN(C)CC5)cc4)ncc3F)ccc2n1 | IC50 (Ramos): 510 nM; inhibition [7]: Active; inhibition [8]: Active; IC50 (MV4-11): 3 nM
– | 1130 | COc1cc(Nc2ncc(F)c(Nc3cccc(C(N)=O)c3)n2)cc(OC)c1OC | –
